The results in this text go back to the NIST ThermoML archive (doi:10.1016/j.fluid.2010.07.005).

Data set [1] can be described thus: molar heat capacity at constant pressure. The settings on record: 101.33 kPa, Liquid, Vacuum adiabatic calorimetry.
The conditions of data set [2]: 101.33 kPa, Liquid; for viscosity: Capillary tube (Ostwald / Ubbelohde) method; for mass density: Speicific gravity balance.
A short description of data set [3]: excess molar enthalpy (molar enthalpy of mixing); xn = mol fraction of the nth substance listed. As to conditions: 298.15 K; 101.33 kPa; Liquid; Flow calorimetry; x2 = 0.

Numbers after ± are expanded uncertainties.

As usually defined, the viscosity is the internal friction of a fluid under shear. Broadly, the mass density is the mass of a sample divided by its volume.

As to `COP(=O)([O-])OC.Cn1cc[n+](C)c1` [1,3-dimethylimidazolium dimethylphosphate], the “molar heat capacity at constant pressure” value in data set [1] (298.15 K) came to 282.83 ± 13 J/K/mol; in data set [1] (303.15 K), 296.61 ± 13 J/K/mol; in data set [1] (313.15 K), 310.83 ± 13 J/K/mol; in data set [1] (323.15 K) it was 321.05 ± 13 J/K/mol. The viscosity stood at 271.86 ± 8 mPa·s in data set [2] (298.15 K); 188.3 ± 4.5 mPa·s in data set [2] (303.15 K); 139.49 ± 2.6 mPa·s in data set [2] (308.15 K); 110.25 ± 1.6 mPa·s in data set [2] (313.15 K); 84.44 ± 0.88 mPa·s in data set [2] (318.15 K); 69.99 ± 0.59 mPa·s in data set [2] (323.15 K). Also, the mass density in data set [2] (298.15 K) was found to be 1258.7 ± 1.2 kg/m3; in data set [2] (303.15 K), 1255.9 ± 1.2 kg/m3; in data set [2] (308.15 K) it was 1253 ± 1.2 kg/m3; in data set [2] (313.15 K) it was 1249.1 ± 1.2 kg/m3; in data set [2] (318.15 K), 1245.2 ± 1.2 kg/m3; in data set [2] (323.15 K), 1241.5 ± 1.2 kg/m3.

Turning to `CCO` [ethanol] + COP(=O)([O-])OC.Cn1cc[n+](C)c1, the excess molar enthalpy in data set [3] amounted to 0 ± 0.0086 kcal/mol.

Take `CO` [methanol] + COP(=O)([O-])OC.Cn1cc[n+](C)c1: the excess molar enthalpy in data set [3] was 0 ± 0.00526 kcal/mol.

Regarding `O` [water] + COP(=O)([O-])OC.Cn1cc[n+](C)c1, in data set [3], the excess molar enthalpy was 0 ± 0.055 kcal/mol.
